Drawing on ChEMBL document CHEMBL3588755, “hERG Channel Inhibitory Daphnane Diterpenoid Orthoesters and Polycephalones A and B with Unprecedented Skeletons from Gnidia polycephala” (J Nat Prod, 2015), this text covers inhibition and Retention_time for three compounds.

Broadly, the inhibition is the relative decrease from the control value, in per cent. The low end stands for a weak effect, the high end for a strong effect.

Structures are written as SMILES.

The target in one data set is hERG (KCNH2) (Homo sapiens, UniProt Q12809). Description: Inhibition of human ERG expressed in Xenopus laevis oocytes at 100 uM incubated for 3 mins at holding potential of -100 mV followed by depolarization to +20 mV and repolarization to -50 mV by two-microelectrode voltage clamp assay. It counts as cell-based. The note with it: Xenopus laevis oocytes expressing human ERG.
Chain of hERG (KCNH2) (Q12809 whole entry): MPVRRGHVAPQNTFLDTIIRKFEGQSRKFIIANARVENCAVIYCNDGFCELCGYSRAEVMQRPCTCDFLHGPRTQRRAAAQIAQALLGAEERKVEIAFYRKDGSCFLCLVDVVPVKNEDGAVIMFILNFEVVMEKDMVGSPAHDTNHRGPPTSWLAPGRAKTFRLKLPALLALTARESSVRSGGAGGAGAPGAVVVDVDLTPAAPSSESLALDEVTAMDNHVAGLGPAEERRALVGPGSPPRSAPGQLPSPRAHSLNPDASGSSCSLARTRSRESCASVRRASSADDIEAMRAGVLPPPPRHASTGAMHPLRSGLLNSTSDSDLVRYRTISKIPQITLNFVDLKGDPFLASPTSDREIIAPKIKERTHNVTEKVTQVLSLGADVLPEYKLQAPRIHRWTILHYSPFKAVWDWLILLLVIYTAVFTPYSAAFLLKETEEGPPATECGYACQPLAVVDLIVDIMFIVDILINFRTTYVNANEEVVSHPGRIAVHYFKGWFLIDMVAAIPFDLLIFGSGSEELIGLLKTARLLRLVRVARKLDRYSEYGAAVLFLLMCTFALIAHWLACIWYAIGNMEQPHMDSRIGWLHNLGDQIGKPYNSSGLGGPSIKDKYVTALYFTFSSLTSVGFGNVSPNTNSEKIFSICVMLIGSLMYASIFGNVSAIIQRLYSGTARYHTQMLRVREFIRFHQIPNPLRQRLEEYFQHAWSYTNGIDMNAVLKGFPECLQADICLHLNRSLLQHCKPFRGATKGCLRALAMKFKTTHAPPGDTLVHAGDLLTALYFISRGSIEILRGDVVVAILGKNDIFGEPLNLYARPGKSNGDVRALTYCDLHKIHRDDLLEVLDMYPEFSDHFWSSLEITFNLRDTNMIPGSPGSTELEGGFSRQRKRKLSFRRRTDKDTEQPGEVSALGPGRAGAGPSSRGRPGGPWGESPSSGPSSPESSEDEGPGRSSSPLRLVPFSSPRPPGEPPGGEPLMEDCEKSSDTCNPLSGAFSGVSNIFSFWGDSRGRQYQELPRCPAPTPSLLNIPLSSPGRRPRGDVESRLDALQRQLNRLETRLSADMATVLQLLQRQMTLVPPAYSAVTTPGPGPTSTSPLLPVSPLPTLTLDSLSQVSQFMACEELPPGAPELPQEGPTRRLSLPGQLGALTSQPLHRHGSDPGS

The nature of data set [1]: Retention time of the compound by HPLC method. Type of data set: physicochemical.

With `C=C(C)[C@@]12C[C@@H](C)[C@@]34OC(/C=C\C=C/CCCCC)(O[C@@H]1[C@@H]3[C@@H]1O[C@]1(CO)[C@@H](O)[C@]1(O)C(=O)C(C)=C[C@H]14)O2`, on hERG (KCNH2), the inhibition at 0.05 h, 100 µM amounted to 55.4%. The Retention_time in data set [1] turned out to be 18.9 min.

On hERG (KCNH2), `C=C(C)[C@]12OC3(/C=C\C=C/CCCCC)O[C@@H]1[C@@H]1[C@@H]4O[C@]4(CO)[C@@H](O)[C@]4(O)C(=O)C(C)=C[C@H]4[C@@]1(O3)[C@H](C)[C@H]2OC(=O)c1ccccc1` had an inhibition at 0.05 h, 100 µM of 42.5%. The Retention_time in data set [1] is recorded as 23.5 min.

`C=C(C)[C@]12OC3(/C=C/C=C/CCCCC)O[C@@H]1[C@@H]1[C@@H]4O[C@]4(CO)[C@@H](O)[C@]4(O)C(=O)C(C)=C[C@H]4[C@@]1(O3)[C@H](C)[C@H]2OC(=O)c1ccccc1` showed an inhibition at 0.05 h, 100 µM against hERG (KCNH2) of 51.3%. In data set [1], this compound returned a Retention_time of 25.5 min.
